Source: publication PMC9037180, “Ligand-based design and synthesis of N'-Benzylidene-3,4-dimethoxybenzohydrazide derivatives as potential antimicrobial agents; evaluation by in vitro, in vivo, and in silico approaches with SAR studies” (Journal of Enzyme Inhibition and Medicinal Chemistry, 2022)
In brackets after ≈: the same amount, converted by molar mass. Like-named read-outs stand apart in the source and are kept apart here.

Columns and labels:
A. baumanii = assay: Minimal bactericidal concentration (MBC); assay type: cell-based; details: Acinetobacter baumannii
Experimental: (§1) After determining the MIC for the target compounds, the minimal bactericidal concentration (MBC) for each compound that is required to kill each one of the above-mentioned microorganisms was assessed.

C. albicans = assay: Minimal bactericidal concentration (MBC); assay type: cell-based; details: Candida albicans
Experimental: as §1

S. typhi = assay: H&E histological examination of liver and kidney, S. typhi infected rats; assay type: in vivo
Experimental: (§2) Rats were divided randomly into equal fifteen groups, each containing 9 rats as follows: • Group 1: Rats were kept on standard laboratory chow and water ad libitum to serve as a control. • Group 2: Rats have injected IP with sterile distilled water (4ml/kg) daily for one week to serve as a control. • Group 3: Rats have injected IP with DEMSO (dimethyl sulfoxide) (4 ml/kg) daily for one week to serve as a control. • Group 4: Rats have injected IP with 4h (1.9 mg/kg) daily for one week. • Group 5: Rats have injected IP with 4h (3.8 mg/kg) daily for one week. • Group 6: Rats have injected IP with 4i (1.9 mg/kg) daily for one week. • Group 7: Rats have injected IP with 4i (3.8 mg/kg) daily for one week. • Group 8: Rats were infected by a single IM injection of S. aureus strain [1.0 ml) 1 × 10^7) colony-forming units]. • Group 9: Rats have injected IP with 4h (1.9 mg/kg) daily for one week on the 7th day after induction of infection by a single IM injection of S. aureus strain [1.0 ml (1 × 10^7) colony-forming units. • Group 10: Rats have injected IP with 4h (3.8 mg/kg) daily for one week on the 7th day after induction of infection by a single IM injection of S. aureus strain [1.0 ml (1 × 10^7) colony-forming units]. • Group 11: Rats were infected by a single IM injection of S. typhi strain [1.0 ml (1 × 10^7) colony forming units). • Group 12: Rats have injected IP with 4h (1.9 mg/kg) daily for one week. on the 7th day after induction of infection by a single IM injection of S. typhi strain [1.0 ml (1 × 10^7) colony-forming units]. • Group 13: Rats have injected IP with 4h (3.8 mg/kg) daily for one week on the 7th day after infection by a single IM injection of S. typhi strain [1.0 ml (1 × 10^7) colony-forming units]. • Group 14: Rats have injected IP with 4i (1.9 mg/kg) daily for one week. on the 7th day after induction of infection by a single IM injection of S. typhi strain [1.0 ml (1 × 10^7) colony-forming units]. • Group 15: Rats have injected IP with 4i (3.8 mg/kg) daily for one week. on the 7th day after induction of infection by a single IM injection of Salmonella strain [1.0 ml (1 × 10^7) colony-forming units].
(§3) At the end of the experiment, the animals were euthanized through cervical dislocation. After that, the liver and kidney were dissected for histological study. The procedure for histological preparations was described by Bancroft and Stevens[73]. Briefly, liver and kidney tissues were sliced to 3–4 mm thick, fixed in 10% neutral buffered formalin (10% NBF), dehydrated in graded concentrations of ethanol, cleared in xylene, and embedded in paraffin. The paraffin blocks were sectioned with a microtome at (4–6 μm) thickness and dyed with H & E stain to study the general tissue structure.

NFKB2 = assay type: in vivo, rats; details: Mean ± SE
Experimental: as §2
Immunohistochemistry (IHC) was performed on paraffin sections and mounted on positively charged slides to detect caspase-3 as an indicator for apoptosis and nuclear factor kappa-light-chain-enhancer of activated B cells (NFKB2) for inflammation by using the avidin-biotin-peroxidase complex (ABC) method. The exact methodology was carried out as previously described in detail.
Caspase-3 and NFKB2 immunostaining were measured as area % in a standard measuring frame in representative five fields for each subject (liver and kidneys) in all groups using 100x magnification via light microscopy transferred to the screen. […]

Aciento MDR = assay: Minimal inhibitory concentration (MIC), broth dilution
S. aureus ATCC 6538 = assay: as above
Aciento sensitive = assay: Minimal bactericidal concentration (MBC); assay type: cell-based, A. baumanii; details: Aciento sensitive
Experimental: as §1

S. aureus [1] = assay: Biochemical analysis in S. aureus-infected rats; assay type: in vivo; details: first and second dose (1.9 and 3.8 mg/kg IP daily for one week)
Experimental: The compounds 4h and 4j were dissolved in DMSO (dimethyl sulfoxide) then further dilutions were made by using sterile distilled water. The doses of both candidates were calculated according to the method given by Paget and Barnes[60]. Sterile distilled water, DEMSO, and investigated compounds (4h (1.9 and 3.8 mg/kg) and 4j (1.9 and 3.8 mg/kg)) were injected in a volume of 4 ml/kg[61]. The experiment lasts two weeks, the 1st week for induction of infection in the infected groups and the 2nd week for the administration of the compounds in all groups. […]
ALT and AST were determined[66] using commercial kits obtained from Diamond Diagnostics, Egypt.
Serum urea was determined by using the modified Berthelot–Searcy method. Serum creatinine activity was also assessed by using the application of Jaffe’s reaction.
Serum levels of the pro-inflammatory cytokine, TNF-α, were determined by the quantitative enzyme immunoassay (EIA) kit purchased from R&D Systems (USA) according to the method of Howard and Harada[69], while that of anti-inflammatory cytokine IL-10 was according to Croft et al.. […]

S. aureus [2] = assay: H&E histological examination of liver and kidney, S. aureus infected rats; assay type: in vivo
Experimental: as §2, §3

Row | Compound | MBC (A. baumanii) [µM] | MBC (C. albicans) [µM] | kidney pathological changes (H&E) (S. typhi; high dose (3.8 mg/kg)) | liver pathological changes (H&E) (S. typhi; high dose (3.8 mg/kg)) | kidney pathological changes (H&E) (S. typhi; low dose (1.9 mg/kg)) | liver pathological changes (H&E) (S. typhi; low dose (1.9 mg/kg)) | NFKB2, Kidney (NFKB2; S. typhi infected rats, 1.9 mg/kg IP daily for one week) [area %] | NFKB2, Kidney (NFKB2; S. typhi infected rats, 3.8 mg/kg IP daily for one week) [area %] | NFKB2, Kidney (NFKB2; uninfected rats, 1.9 mg/kg IP daily for one week) [area %] | NFKB2, Kidney (NFKB2; uninfected rats, 3.8 mg/kg IP daily for one week) [area %] | MIC (Aciento MDR; Acinetobacter baumannii) [µM] | MIC (S. aureus ATCC 6538; Staphylococcus aureus, ATCC6538) [µM] | MBC (Aciento sensitive) [µM] | renal and liver functions, oxidative stress and inflammatory markers (urea, creatinine, ALT, AST, GSH, MDA, TNF-α, IL-10) (S. aureus [1]) | kidney pathological changes (H&E) (S. aureus [2]; high dose (3.8 mg/kg)) | liver pathological changes (H&E) (S. aureus [2]; high dose (3.8 mg/kg)) | kidney pathological changes (H&E) (S. aureus [2]; low dose (1.9 mg/kg)) | liver pathological changes (H&E) (S. aureus [2]; low dose (1.9 mg/kg)) | MIC (Aciento MDR; Aciento MDR (AM)) [µM] | MIC (S. aureus ATCC 6538; S. aureus (SA)) [µM]
1 | COc1ccc(C(=O)NN=Cc2ccc3ccccc3n2)cc1OC [Compound 4i, N'-(quinolin-2-ylmethylene)-3,4-dimethoxybenzohydrazide] | 186 (≈ 62.5 µg/mL) | 186 (≈ 62.5 µg/mL) | marked improved renal tissue | marked improvement in the pathological changes | improved pathological changes | improved pathological changes | 28.693 ± 0.4494 | 11.91 ± 1.04 | 0.7513 ± 0.0671 | 0.4087 ± 0.08844 | 373 (≈ 125 µg/mL) | 46.5 (≈ 15.6 µg/mL) |  |  |  |  |  |  |  | 
2 | N'-((3a,7a-dihydro-1H-indol-3-yl)methylene)-3,4-dimethoxybenzohydrazide [Compound 4h] |  |  | marked improved renal tissue | marked improvement in the pathological changes | improved pathological changes | improved pathological changes |  |  |  |  |  |  | 96.87 | significant improvement in all the measured parameters | marked improved renal tissue | marked improvement in the pathological changes | improved pathological changes | improved pathological changes | 193.40 | 5.88
